Measurements published in patent publication US11883423B2, “Nucleobase analogue derivatives and their applications” (BOARD OF REGENTS, THE UNIVERSITY OF TEXAS SYSTEM, priority 2014, dated 2024).

Key:
Panc-02 tumor cells = experiment: Cytotoxicity after 4 h co-incubation, MTT test; format: cell-based, mouse; conditions: Panc-02 cells, at 60 μM
Experimental: The mechanisms underlying the cytotoxicity of the Gem-DHA may be different from that of gemcitabine. For example, in cell culture studies, Panc-02 cells were seeded into 96-well plates (1,500 cells per well) and incubated at 37° C., 5% CO2 for 24 h. They were then co-incubated with various concentrations of Gem-DHA, gemcitabine HCl alone, or DHA alone for 4 h, and cell viability was determined using an MTT test.

[1] = tested on: Kras-Ink4a mice that spontaneously develop pancreatic tumors; experiment: Survival of Kras-Ink4a mice, genetically modified model of pancreatic cancer; format: in vivo, mouse; conditions: i.p., 50 mg/kg
Experimental: Finally, the antitumor activity of Gem-DHA was also evaluated in a genetically modified mouse model of pancreatic cancer. Female Kras-Ink4a mice that spontaneously develop pancreatic tumors were obtained from Dr. Stephen Hursting's lab at the University of Texas at Austin (Lashinger L et al. Cancer Prevention Research. 2013, 6(10), 1046-1055). […] On the 20th week, one group of mice (n=5) started to receive Gem-DHA (50 mg/kg, in Tween 80/ethanol/water solution with 5% (w/v) of mannitol) by i.p. injection. The injection was repeated twice a week, once a week for the last 5 doses, for a total of 29 times. As a control, another group of mice (n=6) were left untreated. […] Shown in FIG. 15 are the survival curves of mice treated with Gem-DHA or left untreated. […] The median survival time of mice that were treated with Gem-DHA was 280 days, in comparison to 172 days for mice that were left untreated (p=0.01, Log-rank (Mantel-Cox) test).

[2] = design: species or system BALB/c mice; conditions: female, BALB/c, mouse, in vivo, iv, 75 mg/kg, 1 h
Experimental: The biodistribution of Gem-DHA was further evaluated in healthy BALB/c mice. Briefly, female BALB/c mice (Charles River, 14-16 weeks, n=3) were injected via the tail vein with Gem-DHA in a Tween 80/ethanol/water solution containing 5% (w/v) mannitol at a dose of 75 mg/kg. After 1 h, mice were euthanized to collect pancreas, lung, spleen, liver, heart, and kidneys. Gem-DHA was extracted from the samples and analyzed using HPLC. As a control, mice (n=3) were also injected with gemcitabine HCl (75 mg/kg) in 5% (w/v) mannitol solution and euthanized 1 h later to collect their pancreas. Gemcitabine was extracted using the following method. Briefly, once the pancreas was collected, it was weighed, placed into 0.25 ml of PBS containing 40 μg of tetrahydrouridine (a deoxycytidine deaminase inhibitor) and homogenized using a bead beater. Deoxyuridine (dU, 20 μl of 20 μg/ml) was then added into the homogenate as an internal standard. Acetonitrile was used to precipitate the proteins twice, and gemcitabine content in the supernatant was analyzed using HPLC. […] Therefore, it appeared that Gem-DHA preferred to distribute in pancreatic tissues.

Panc-02 cells = experiment: Apoptosis analysis, Annexin V staining and flow cytometry; format: cell-based, mouse; conditions: 48 h
Experimental: Apoptosis analysis was carried out as previously reported (Zhu S et al. Biomaterials. 2013, 34(9), 2327-2339). Briefly, 100,000 Panc-02 cells were incubated in 24-well plates for 24 h at 37° C. and 5% CO2 and then co-incubated with various concentrations of Gem-DHA for 48 h. The cells were then harvested and stained with 0.1 ml of Guava Nexin reagent (Millipore Corporation, Billerica, Mass.) for 20 min at room temperature, protected from light. The stained cells were analyzed using a Millipore Guava easyCyte 8HT Flow Cytometry System. Control cells were left untreated.

[3] = Chemical stability in Tween 80/ethanol/water formulation (HPLC); format: physicochemical; conditions: for First order degradation rate constant k: aqueous formulation, mean ± SD (n=3)
Experimental: Gem-DHA was solubilized into an aqueous formulation that contains Tween 80 (10%, w/v) and ethanol (5.5%, v/v) (referred to as the Tween 80/ethanol/water formulation) to evaluate its in vivo activity. The stability of Gem-DHA in this formulation was evaluated in crimp-sealed amber glass vials under nitrogen atmosphere. Briefly, 150 μl of the Gem-DHA aqueous solution at a concentration of about 7 mg/ml were added to the amber glass vials under nitrogen atmosphere, and the vials were crimp-sealed with aluminum seals over rubber lids. At predetermined time intervals, 10 μl of the solution were diluted with 90 μl of methanol and mixed, and the concentration was measured using HPLC. Stability tests were carried out at room temperature (˜22° C.) or 4° C. in triplicates. Vitamin E was added in the formulation to a final concentration of 0.01% or 0.04% (v/v) to evaluate the effect of vitamin E on the chemical stability of Gem-DHA.
The degradation was slower at 4° C. […] Indeed, it was reported that a higher concentration of vitamin E may not necessarily have a higher anti-oxidative activity, as higher concentrations may sometimes lead to opposite effects (Owen S C. In: Rowe R C, Sheskey P J, Owen S C Eds, Handbook of Pharmaceutical Excipients. London, Pharmaceutical Press, 2006; 32-35).
To study the effect of temperature on the chemical stability of Gem-DHA, the Gem-DHA formulation in crimp-sealed vials under nitrogen was stored in room temperature, 37° C., or 60° C., protected from light. Sampling and analyses were carried out at pre-determined time points as described above. The first order degradation reaction equation was used to calculate the values of the reaction rate (k) at different temperatures (Table 2). An Arrhenius plot was constructed by plotting the In k values vs. 1/T to calculate the activation energy (Ea, in kcal/mol). The activation energy of the chemical reaction was calculated to be 12.86 kcal/mol (FIG. 2C).

[4] = Solubility in ethanol or Tween 80; format: physicochemical
[5] = Plasma pharmacokinetics after i.v. injection; format: in vivo, C57BL/6 mice; conditions: 75 mg/kg
Experimental: Healthy female C57BL/6 mice (6-8 weeks) were injected intravenously (i.v.) with Gem-DHA solution at a dose of 75 mg/kg via the tail vein. At pre-determined time intervals (5, 15, 30, 60, 120, and 180 min), 3 mice were euthanized at each time point to collect plasma samples. Gem-DHA was extracted twice using ethyl acetate and analyzed using HPLC. Data were analyzed using the Pharsight WinNonlin software (Sunnyvale, Calif.).

Question: With `CC/C=C\C/C=C\C/C=C\C/C=C\C/C=C\C/C=C\CCC(=O)Nc1ccn(C2OC(CO)C(O)C2(F)F)c(=O)n1` (centres unmarked) [Gem-DHA, 4-(N)-Docosahexaenoyl Difluorodeoxycytidine] as the compound, how does the “Cytotoxicity after 4 h of co-incubation” value (Panc-02 tumor cells) read?
Answer: significant cytotoxicity

Question: And the Median survival time ([1]; 29 injections from week 20, untreated 172 days, p=0.01)?
Answer: 280 days

Question: What about the “Survival of the mice” value ([1]; versus untreated) of the same compound?
Answer: significantly prolonged the survival

Question: And the “Percent of injected compound recovered in each gram of pancreas” value [2]?
Answer: 0.37±0.18%

Question: What about the “Pro-apoptotic activity, Annexin V staining” value (Panc-02 cells) of the same compound?
Answer: concentration-dependent apoptosis

Question: What about the “Degradation in Tween 80/ethanol/water formulation” value ([3]; 4° C., compared with room temperature) of the same compound?
Answer: slower

Question: What about the “Activation energy (Ea) of the degradation” value ([3]; Arrhenius plot of ln k vs 1/T) of the same compound?
Answer: 12.86 kcal/mol

Question: And the “First order degradation rate constant k” value ([3]; 37° C.)?
Answer: 0.042 ± 0.005 h⁻¹

Question: What about the “First order degradation rate constant k” value ([3]; 60° C.) of the same compound?
Answer: 0.106 ± 0.009 h⁻¹

Question: What about the “First order degradation rate constant k” value ([3]; room temperature (~22° C.)) of the same compound?
Answer: 0.018 ± 0.001 h⁻¹

Question: And the “Degradation in Tween 80/ethanol/water formulation” value ([3]; room temperature (~22° C.))?
Answer: found to degrade at room temperature

Question: And the “Degradation in Tween 80/ethanol/water formulation” value ([3]; with vitamin E 0.01% or 0.04%, 0.01% more effective than 0.04%)?
Answer: slower in the presence of vitamin E

Question: What about the “Solubility in ethanol or Tween 80” value [4] of the same compound?
Answer: freely soluble

Question: What about the “Elimination from plasma (model)” value [5] of the same compound?
Answer: follows a bi-exponential model
